The record followed here is ChEMBL document CHEMBL1158651, “Centaurepensin: A Cytotoxic Constituent of Centaurea solstitialis and C. repens (Asteraceae)” (1979).

The structures appear in SMILES notation. ≈ marks a conversion by molar mass, not a printed value.

A short description of this assay: Cytotoxicity against human 9KB cells. The assay is classed as functional. The settings on record: read-out: ED50 (the source's name).

In the case of `C=C1C(=O)O[C@H]2[C@H]1[C@@H](OC(=O)[C@](C)(O)CCl)CC(=C)[C@@H]1C[C@H](O)[C@](O)(CCl)[C@H]21` [CENTAUREPENSIN], the EC50 worked out at 1.7 µg/mL (≈ 3.91 µM).
